The text below walks through data of ChEMBL document CHEMBL1201862, “PubChem BioAssay data set” (2004).

Test systems include 786-0; A549; HCT-15; HOP-92; HT-29; K562; Malme-3M; OVCAR-3; OVCAR-8; RPMI-8226; RXF 393; SF-295; SF-539; SK-MEL-2; XF498.
Test in all cases: growth of human tumour cells (NCI), 48 h

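Cells were grown in 96-well plates and exposed to each compound for 48 hours at five concentrations; endpoints were interpolated linearly between bracketing concentrations, or set to the highest concentration if not reached. Abbreviation: GI50, concentration required for 50% inhibition of growth.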 The source made the active and inactive calls. Cut-off read from the data, not from the text of the source: active = GI50 up to about 1.1 µM and inactive = higher. A value given as a limit tells only on which side of the number the result lay.

With `Cc1cn(Cc2ccccc2CCO)c(=S)[nH]c1=O`, the GI50 in the assay with 786-0 is > 100 µM (inactive); with A549, > 100 µM (inactive); in the assay on HCT-15 it was > 100 µM; in the assay with HOP-92, > 100 µM (inactive); in the assay on HT-29, > 100 µM (inactive); with K562 it was > 100 µM (inactive). Besides, the GI50 in the assay with Malme-3M, in the assay with OVCAR-3, in the assay on OVCAR-8, with RPMI-8226, with RXF 393 and in the assay on SF-295 was > 100 µM (inactive) in each case. For the same compound, the GI50 in the assay with SF-539, in the assay on SK-MEL-2 and in the assay with XF498 was > 100 µM (inactive) each time.
As to `COc1ccc2nc3cc(Cl)ccc3c(Sc3ccc([N+](=O)[O-])cc3)c2c1`, the GI50 is > 10 µM (inactive) with 786-0; > 10 µM (inactive) in the assay with A549; > 10 µM with HCT-15; > 10 µM (inactive) in the assay with HOP-92; > 100 µM (inactive) with HT-29; > 10 µM (inactive) in the assay on K562. The GI50 with Malme-3M is > 10 µM (inactive); in the assay with OVCAR-3, > 10 µM (inactive); with OVCAR-8 it was > 10 µM (inactive); in the assay on RPMI-8226, > 100 µM (inactive); in the assay with RXF 393, > 10 µM (inactive); in the assay with SF-295 it was > 10 µM (inactive). Further, the GI50 in the assay on SF-539, with SK-MEL-2 and in the assay with XF498 was > 10 µM (inactive) throughout.
Turning to `C/C(=C1/N=C(c2cc([N+](=O)[O-])ccc2Cl)N(c2cccc(C)c2)C1=O)c1cc2ccccc2oc1=O`, the GI50 with 786-0 is > 100 µM (inactive); with A549, > 100 µM (inactive); in the assay on HCT-15 it was 36.7 µM; with HOP-92, 76.2 µM (inactive); in the assay with HT-29 it was 58.5 µM (inactive); with K562, 33.7 µM (inactive). The GI50 in the assay on Malme-3M was > 100 µM (inactive); in the assay with OVCAR-3, 28.3 µM (inactive); with OVCAR-8, > 100 µM (inactive); in the assay on RPMI-8226, 20.4 µM (inactive); in the assay with RXF 393, 59.6 µM (inactive); in the assay on SF-295 it was > 100 µM (inactive). The GI50 with SK-MEL-2 is > 100 µM (inactive); in the assay on XF498, 21 µM (inactive).
Turning to `c1ccc([P+](CCC[P+](c2ccccc2)(c2ccccc2)c2ccccc2)(c2ccccc2)c2ccccc2)cc1`, the GI50 was > 100 µM (inactive) with 786-0; 34 µM (inactive) with A549; 20.1 µM (inactive) with HOP-92; 34.4 µM (inactive) with HT-29; 8.2 µM (inactive) with K562; 70.8 µM (inactive) in the assay on Malme-3M. Besides, the GI50 in the assay with OVCAR-3 was 13.5 µM (inactive); in the assay on OVCAR-8, 32.6 µM (inactive); in the assay on RPMI-8226 it was 7.38 µM (inactive); in the assay on RXF 393, 64.4 µM (inactive); in the assay with SF-295 it was 31.3 µM (inactive); with SF-539, 39 µM (inactive). The GI50 in the assay with XF498 was 23.7 µM (inactive).
Turning to `COC(=O)c1c(CC(=O)OC(C)C)cc2n(c1=O)Cc1c-2nc2ccccc2c1OC`, the GI50 in the assay with 786-0 was > 100 µM (inactive); in the assay on A549, > 100 µM (inactive); in the assay on HCT-15 it was > 100 µM; in the assay on HOP-92, 45.6 µM (inactive); in the assay with HT-29, > 100 µM (inactive); with K562, > 100 µM (inactive). In addition, the GI50 with Malme-3M is > 100 µM (inactive); in the assay with OVCAR-3 it was > 100 µM (inactive); in the assay with OVCAR-8, > 100 µM (inactive); in the assay on RPMI-8226 it was 59 µM (inactive); in the assay on RXF 393, 26.4 µM (inactive); in the assay on SF-295, > 100 µM (inactive). Moreover, the GI50 in the assay with SK-MEL-2 and in the assay with XF498 was > 100 µM (inactive) each time.
